In patent US20260137697A1, “THIAZOLO[5,4-D]PYRIMIDINE COMPOUNDS, COMPOSITIONS COMPRISING THEM AND USES THEREOF” (University de Montreal, priority 2022, published 2026):

Experiments:
CRAF = target: T1, CRAF (Homo sapiens, UniProt P04049); assay: CRAF kinase activity assay (ADP-Glo); type: biochemical; details: Table 3; 10 μM ATP, kinase-dead MEK1 substrate
T1 construct: fused on or other part: GST tag (N-terminal according to the vendor's product)
In short: (§1)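 GST-tagged kinase (0.375 nM) with 75 nM kinase-dead MEK1 and 10 μM ATP in HEPES pH 7.5 buffer, 2 h at 30° C, nine concentrations 100–0.01 nM, 0.05% DMSO. ADP-Glo luminescence; % inhibition vs DMSO and substrate-only blanks, IC50 by four-parameter fit.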

BRAF = target: T2, BRAF (Homo sapiens, UniProt P15056); assay: BRAF kinase activity assay (ADP-Glo); type: biochemical; details: Table 3; 10 μM ATP, kinase-dead MEK1 substrate
T2 construct: GST; purchased Millipore Sigma B4062-10UG
In short: as §1

pERK, HCT116 cells = assay: Phospho-ERK inhibition, AlphaLISA p-ERK 1/2, HCT-116; type: cell-based, human; details: Table 3; for IC50: HCT116 cells (KRAS G13D), 1 h treatment; for HCT116 pERK (Ymin %): lowest % inhibition value of the pERK IC50 curve, above −20% = no paradoxical induction
In short: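 Cells in RPMI-1640 with 5% FBS plated overnight, then treated 1 h with ten-point dilutions (10 μM to 0.33 nM, 0.5% DMSO). Lysate p-ERK1/2 (Thr202/Tyr204) read by AlphaLISA SureFire Ultra; % inhibition normalised to DMSO and 1 μM trametinib background, IC50 by four-parameter fit.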

T1 sequence (P04049 whole entry Y340E/Y341E, form open, the tested form may be a part): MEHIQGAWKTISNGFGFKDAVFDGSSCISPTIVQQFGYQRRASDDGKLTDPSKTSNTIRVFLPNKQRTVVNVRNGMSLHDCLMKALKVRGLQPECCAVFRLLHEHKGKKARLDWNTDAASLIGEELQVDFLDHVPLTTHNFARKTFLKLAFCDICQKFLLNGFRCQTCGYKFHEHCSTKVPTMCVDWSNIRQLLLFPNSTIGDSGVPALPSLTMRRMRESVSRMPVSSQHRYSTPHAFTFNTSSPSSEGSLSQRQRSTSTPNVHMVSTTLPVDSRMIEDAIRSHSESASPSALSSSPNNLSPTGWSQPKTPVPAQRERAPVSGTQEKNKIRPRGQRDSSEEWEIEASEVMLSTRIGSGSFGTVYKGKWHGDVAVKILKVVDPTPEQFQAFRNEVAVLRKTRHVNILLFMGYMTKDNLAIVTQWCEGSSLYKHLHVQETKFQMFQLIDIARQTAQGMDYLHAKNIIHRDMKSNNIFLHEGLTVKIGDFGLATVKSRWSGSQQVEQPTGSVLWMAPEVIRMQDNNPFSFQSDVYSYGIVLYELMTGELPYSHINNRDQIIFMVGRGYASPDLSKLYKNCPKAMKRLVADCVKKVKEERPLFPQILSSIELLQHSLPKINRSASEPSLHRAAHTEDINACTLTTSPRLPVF
T2 sequence (P15056 whole entry): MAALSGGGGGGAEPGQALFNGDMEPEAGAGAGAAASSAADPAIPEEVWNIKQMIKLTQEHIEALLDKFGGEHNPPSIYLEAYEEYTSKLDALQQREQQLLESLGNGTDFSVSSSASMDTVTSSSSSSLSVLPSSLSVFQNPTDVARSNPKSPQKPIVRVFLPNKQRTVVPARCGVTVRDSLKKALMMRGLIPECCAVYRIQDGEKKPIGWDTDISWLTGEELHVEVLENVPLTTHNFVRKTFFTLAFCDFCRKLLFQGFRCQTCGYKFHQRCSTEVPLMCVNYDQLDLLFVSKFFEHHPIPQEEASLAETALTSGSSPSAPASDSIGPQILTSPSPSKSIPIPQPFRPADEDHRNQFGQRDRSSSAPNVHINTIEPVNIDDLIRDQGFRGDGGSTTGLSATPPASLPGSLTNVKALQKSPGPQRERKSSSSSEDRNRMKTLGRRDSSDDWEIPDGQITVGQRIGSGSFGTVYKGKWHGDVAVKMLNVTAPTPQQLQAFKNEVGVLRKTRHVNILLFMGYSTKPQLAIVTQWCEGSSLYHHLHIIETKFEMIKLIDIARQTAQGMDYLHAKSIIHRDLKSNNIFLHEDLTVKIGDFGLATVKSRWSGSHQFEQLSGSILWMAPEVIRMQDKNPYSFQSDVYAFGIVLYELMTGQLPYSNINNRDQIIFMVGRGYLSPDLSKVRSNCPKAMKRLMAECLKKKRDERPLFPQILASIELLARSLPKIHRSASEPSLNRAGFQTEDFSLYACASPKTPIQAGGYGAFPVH

| SMILES | IC50 (CRAF) | IC50 (BRAF) | IC50 (pERK, HCT116 cells) | HCT116 pERK (Ymin %) (pERK, HCT116 cells) | IC50 (pERK, HCT116 cells; Homo sapiens, HCT-116) |
| --- | --- | --- | --- | --- | --- |
| COCCCN(C)c1cccc2c1ncn2-c1nc2c(Nc3c(F)ccc(NS(=O)(=O)c4cccc(Cl)c4Cl)c3F)ncnc2s1 [Example 128] | 0.01 to 0.05 µM | 0.001 to 0.01 µM | < 0.5 µM | 1% |  |
| O=S(=O)(Nc1ccc(F)c(Nc2ncnc3sc(-n4ccc5ccccc54)nc23)c1F)c1cccc(Cl)c1Cl [Example 114] | > 0.05 µM | > 0.01 µM | 1 to 10 µM | −14% |  |
| CC1(O)CCN(c2cccc3c2ncn3-c2nc3c(Nc4c(F)ccc(NS(=O)(=O)c5cccc(Cl)c5Cl)c4F)ncnc3s2)CC1 [Example 113] | 0.01 to 0.05 µM | 0.001 to 0.01 µM |  |  | < 0.5 µM |
| O=S(=O)(Nc1ccc(F)c(Nc2ncnc3sc(-n4cnc(CCO)c4)nc23)c1F)c1cccc(Cl)c1Cl [Example 121] | 0.01 to 0.05 µM | 0.001 to 0.01 µM | 0.5 to 1 µM | −11% |  |
| O=S(=O)(Nc1ccc(F)c(Nc2ncnc3sc(-n4cc(S(=O)(=O)N5C6CCC5COC6)c5ccccc54)nc23)c1F)c1cccc(Cl)c1Cl [Example 67] | > 0.05 µM | 0.001 to 0.01 µM | < 0.5 µM | 0% |  |
| Cc1c(Cl)cccc1S(=O)(=O)Nc1ccc(F)c(Nc2ncnc3sc(-n4cnc5c(N)cccc54)nc23)c1F [Example 5] | < 0.01 µM | 0.001 to 0.01 µM | < 0.5 µM | −6% |  |
| Cc1c(F)cccc1S(=O)(=O)Nc1ccc(F)c(Nc2ncnc3sc(-n4cc(C(=O)N5CCC(CO)C5)c5ccccc54)nc23)c1F (centres unmarked) [Example 33] | < 0.01 µM | < 0.001 µM | < 0.5 µM | −7% |  |
| O=S(=O)(Nc1ccc(F)c(Nc2ncnc3sc(-n4cnc5c(F)cccc54)nc23)c1F)c1ccccc1Cl [Example 38] | < 0.01 µM | 0.001 to 0.01 µM | 0.5 to 1 µM | −6% |  |
| COCCC(=O)c1cn(-c2nc3c(Nc4c(F)ccc(NS(=O)(=O)c5cccc(Cl)c5Cl)c4F)ncnc3s2)c2ccccc12 [Example 106] | 0.01 to 0.05 µM | > 0.01 µM |  |  | 0.5 to 1 µM |
| Cc1c(F)cccc1S(=O)(=O)Nc1ccc(F)c(Nc2ncnc3sc(-n4cc(C(=O)NCc5cccnc5)c5ccccc54)nc23)c1F [Example 29] | > 0.05 µM | > 0.01 µM | 0.5 to 1 µM | 5% |  |
| Cc1c(Cl)cccc1S(=O)(=O)Nc1ccc(F)c(Nc2ncnc3sc(-n4cnc5c(C(C)(C)C#N)cccc54)nc23)c1F [Example 116] | 0.01 to 0.05 µM | 0.001 to 0.01 µM | < 0.5 µM | −3% |  |
| CCC1(O)CCN(c2cccc3c2ncn3-c2nc3c(Nc4c(F)ccc(NS(=O)(=O)c5cccc(Cl)c5Cl)c4F)ncnc3s2)CC1 [Example 149] | 0.01 to 0.05 µM | 0.001 to 0.01 µM | < 0.5 µM | 16% |  |
| O=S(=O)(Nc1ccc(F)c(Nc2ncnc3sc(-n4cnc5c(N6CCC(O)CC6)cccc54)nc23)c1F)c1cccc(Cl)c1Cl [Example 144] | < 0.01 µM | 0.001 to 0.01 µM | < 0.5 µM | −4% |  |
| Nc1ncccc1-c1cccc2c1ncn2-c1nc2c(Nc3c(F)ccc(NS(=O)(=O)c4cccc(Cl)c4Cl)c3F)ncnc2s1 [Example 134] | 0.01 to 0.05 µM | 0.001 to 0.01 µM | < 0.5 µM | −5% |  |
| CC1(O)CN(C(=O)c2cn(-c3nc4c(Nc5c(F)ccc(NS(=O)(=O)c6cccc(Cl)c6Cl)c5F)ncnc4s3)c3ccccc23)C1 [Example 94] | < 0.01 µM | 0.001 to 0.01 µM | < 0.5 µM | −10% |  |
| O=C(c1cn(-c2nc3c(Nc4c(F)ccc(NS(=O)(=O)c5cccc(Cl)c5Cl)c4F)ncnc3s2)c2cccc(F)c12)N1C2CCC1COC2 [Example 93] | < 0.01 µM | < 0.001 µM | 0.5 to 1 µM | 3% |  |
| COCCOc1ccc2c(ncn2-c2nc3c(Nc4c(F)ccc(NS(=O)(=O)c5cccc(Cl)c5Cl)c4F)ncnc3s2)c1F [Example 79] | < 0.01 µM | 0.001 to 0.01 µM |  |  | 0.5 to 1 µM |
